Test results: patent publication US10829520B2, “Beta-hairpin peptidomimetics” (POLYPHOR AG, priority 2015, dated 2020)
Where a SMILES comes first, the peptide text is derived from it. Bridges are numbered along the chain shown (N, C = ends). [ ]: non-standard residue; d: D form. Hyp = O=C(O)[C@@H]1C[C@@H](O)CN1; Pen = CC(C)(S)[C@H](N)C(=O)O; Orn = NCCC[C@H](N)C(=O)O; Dab = NCC[C@H](N)C(=O)O

Assays:
Assay type in all cases: cell-based
[1] = test system: human red blood cells (hRBC); assay: Hemolysis of human red blood cells; details: red cells of human, 1 h, 100 μg/mL
Summary of the method: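 hRBC washed 3× PBS; 20% v/v, ~0.9×10^9 cells/mL final. Peptide 100 μg/mL, 1 h, 37° C., 300 rpm. Spin, supernatant diluted 8×, OD540. 0% = PBS + 0.001% acetic acid; 100% = 2.5% Triton X-100. % hemolysis = OD540 peptide/OD540 full lysis × 100.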

[2] = test system: Klebsiella pneumoniae SSI #3010; details: SSI #3010
Summary of the method: (§1)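 CLSI broth microdilution; MH-II (cation-adjusted) + 0.002% P-80; ~10^6 CFU/mL inoculum; peptide two-fold serial dilutions; 18-20 h, 35° C; MIC = no visible growth, μg/mL.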

[3] = test system: Pseudomonas aeruginosa ATCC 27853; details: ATCC 27853
Summary of the method: as §1

[4] = test system: Acinetobacter baumannii DSM 30008; details: DSM 30008
Summary of the method: as §1

[5] = test system: Escherichia coli 926415; details: 926415
[6] = test system: Klebsiella pneumoniae 968733; details: 968733
[7] = test system: Acinetobacter baumannii 872842; details: 872842
[8] = test system: Escherichia coli ATCC 25922; details: ATCC 25922
Summary of the method: as §1

Row | Structure (SMILES) | Hemolysis at 100 μg/mL [1] [%] | Klebsiella pneumoniae SSI #3010 MIC [2] [µg/mL] | Pseudomonas aeruginosa ATCC 27853 MIC [3] [µg/mL] | Acinetobacter baumannii DSM 30008 MIC [4] [µg/mL] | Escherichia coli 926415 MIC [5] [µg/mL] | Klebsiella pneumoniae 968733 MIC [6] [µg/mL] | Acinetobacter baumannii 872842 MIC [7] [µg/mL] | Escherichia coli ATCC 25922 MIC [8] [µg/mL]
1 | CC(C)C[C@@H]1NC(=O)[C@@H](CC(C)C)NC(=O)[C@H](CCN)NC(=O)[C@@H](NC(=O)[C@H](CCN)NC(=O)[C@H](NC(=O)[C@H](CCN)NC(=O)[C@H](CCCN)NC(=O)[C@@H]2CSSC[C@H](NC(=O)[C@@H](N)Cc3c[nH]c4ccccc34)C(=O)N[C@@H](C(C)C)C(=O)N[C@@H](C)C(=O)N[C@@H](CO)C(=O)N3CCC[C@@H]3C(=O)N3CCC[C@H]3C(=O)N[C@@H](CC(C)C)C(=O)N[C@@H](CO)C(=O)N[C@@H](Cc3ccc(O)cc3)C(=O)N2)[C@H](C)O)CCNC(=O)[C@H]([C@@H](C)O)NC(=O)[C@H](CCN)NC(=O)[C@H](CCN)NC1=O [Ex. 121] (H-WCVAS[dP]PLSYC[Orn][Dab][dT][Dab][Dab][Dab][dL]L[Dab][Dab]T; disulfide 2-11; lactam 16-C) | <1 | 0.25 | 0.5 | 0.125 | 0.125 | 0.25 | 0.125 | 0.125
2 | CC(C)C[C@@H]1NC(=O)[C@@H](CC(C)C)NC(=O)[C@H](CCN)NC(=O)[C@@H](NC(=O)[C@H](CCN)NC(=O)[C@@H](NC(=O)[C@H](CCN)NC(=O)[C@H](CCN)NC(=O)[C@H]2NC(=O)[C@H](Cc3ccc(O)cc3)NC(=O)[C@H](CO)NC(=O)[C@H](CC(C)C)NC(=O)[C@@H]3CCCN3C(=O)[C@H]3CCCN3C(=O)[C@H](CO)NC(=O)[C@H](C)NC(=O)[C@H](C(C)C)NC(=O)[C@@H](NC(=O)[C@@H](N)Cc3c[nH]c4ccccc34)C(C)(C)SSC2(C)C)[C@@H](C)O)CCNC(=O)[C@H]([C@@H](C)O)NC(=O)[C@H](CCN)NC(=O)[C@H](CCN)NC1=O [Ex. 122] (H-W[Pen]VAS[dP]PLSY[Pen][Dab][Dab]T[Dab][Dab][Dab][dL]L[Dab][Dab]T; disulfide 2-11; lactam 16-C) | 2 | 0.5 | 0.5 | 0.125 | 0.25 | 1 | 0.03125 | 0.0625
3 | CC(C)C[C@@H]1NC(=O)[C@@H](CC(C)C)NC(=O)[C@H](CCN)NC(=O)[C@@H](NC(=O)[C@H](CCN)NC(=O)[C@@H](NC(=O)[C@H](CCN)NC(=O)[C@H](CCN)NC(=O)[C@@H]2CSSC[C@H](NC(=O)[C@@H](N)Cc3c[nH]c4ccccc34)C(=O)N[C@@H](C(C)C)C(=O)N[C@@H](C)C(=O)N[C@@H](CO)C(=O)N3CCC[C@@H]3C(=O)N3C[C@H](O)C[C@H]3C(=O)N[C@@H](CC(C)C)C(=O)N[C@@H](CO)C(=O)N[C@@H](Cc3ccc(O)cc3)C(=O)N2)[C@@H](C)O)CCNC(=O)[C@H]([C@@H](C)O)NC(=O)[C@H](CCN)NC(=O)[C@H](CCN)NC1=O [Ex. 123] (H-WCVAS[dP][Hyp]LSYC[Dab][Dab]T[Dab][Dab][Dab][dL]L[Dab][Dab]T; disulfide 2-11; lactam 16-C) | <1 | 0.125 | 1 | 0.25 | 0.25 | 4 | 0.0625 | 0.125
